Assay results as given in patent US8883782B2, “Spiro-tetracyclic ring compounds as beta-secretase modulators and methods of use” (Amgen Inc., priority 2010, dated 2014).
Where two headings read alike, the source gives them in different places.

Columns and labels:
[1] = tested on: Aβ40 in conditioned medium of cells stably expressing Amyloid Precursor Protein (APP); assay: In vitro BACE cell-based assay (Aβ40 in conditioned medium, sandwich ELISA); details: Homo sapiens, read-out: HEK cell assay
Method in brief: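 Conditioned medium from stably APP-expressing cells treated with compound dose series is assayed for Aβ40 by sandwich ELISA with time-resolved fluorescence detection. IC50 is calculated from percent inhibition of Aβ40 against compound concentration.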

[2] = target: Beta Secretase enzyme (BACE) (Homo sapiens, UniProt P56817); assay: In vitro enzymatic BACE FRET (fluorescence resonance energy transfer) assay; type: biochemical; details: average IC50, enzyme assay; read-out: BACE 1 FRET assay
Method in brief: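 Enzyme activity was measured at pH 4.2 (0.05 M acetate, 10% DMSO final, 100 uM genapol) by cleavage of a 50 nM quenched fluorogenic peptide. After one hour, Tris was added to neutralise the pH and fluorescence was recorded.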

[3] = HEK293, average IC50, HEK cells

Beta Secretase enzyme (BACE), sequence (P56817 46-501, species assumed): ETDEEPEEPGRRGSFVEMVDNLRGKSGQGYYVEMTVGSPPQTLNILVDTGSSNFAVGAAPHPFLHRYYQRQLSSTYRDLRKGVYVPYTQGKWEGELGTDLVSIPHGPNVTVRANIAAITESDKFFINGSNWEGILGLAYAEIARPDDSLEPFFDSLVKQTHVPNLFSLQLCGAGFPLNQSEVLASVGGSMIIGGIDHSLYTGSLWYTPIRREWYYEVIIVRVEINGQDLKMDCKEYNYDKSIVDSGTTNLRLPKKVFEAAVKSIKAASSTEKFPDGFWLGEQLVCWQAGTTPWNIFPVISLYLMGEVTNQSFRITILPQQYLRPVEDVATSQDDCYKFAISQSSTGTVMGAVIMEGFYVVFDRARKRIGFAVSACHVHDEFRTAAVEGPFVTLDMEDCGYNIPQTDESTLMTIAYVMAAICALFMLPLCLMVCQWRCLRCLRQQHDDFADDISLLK

Row | SMILES | IC50 [1, 3] [nM] | IC50 [2] [nM] | IC50 ([1]; HEK293, average IC50) [nM]
1 | NC1=N[C@]2(CO1)c1cc(-c3cccnc3F)ccc1Oc1nc(F)c(C3=CCCOC3)cc12 [Example 902, (5R)-3-(5,6-dihydro-2H-pyran-3-yl)-2-fluoro-7-(2-fluoro-3-pyridinyl)spiro[chromeno[2,3-b]pyridine-5,4′-[1,3]oxazol]-2′-amine] | 3220 | 137 | 
2 | Cc1ccc(-c2cc(F)c3c(c2)[C@]2(COC(N)=N2)c2cc(OCC4(C)COC4)ccc2O3)cn1 [Example 440, (4S)-4′-fluoro-7′-((3-methyl-3-oxetanyl)methoxy)-2′-(6-methyl-3-pyridinyl)spiro[1,3-oxazole-4,9′-xanthen]-2-amine] | 16.9 | 11.7 | 
3 | CC(C)(C#N)COc1ccc2c(c1)[C@@]1(COC(N)=N1)c1cc(C3=CCOCC3)cc(F)c1O2 [Example 441, 3-(((4S)-2-amino-7′-(3,6-dihydro-2H-pyran-4-yl)-5′-fluorospiro[1,3-oxazole-4,9′-xanthen]-2′-yl)oxy)-2,2-dimethylpropanenitrile] | 14.4 | 4 | 
4 | NC1=N[C@@]2(CO1)c1cc(-c3ccncc3F)ccc1Oc1cnc(-c3ccnc(F)c3)cc12 [Example 573, (5S)-3-(2-fluoro-4-pyridinyl)-7-(3-fluoro-4-pyridinyl)spiro[chromeno[2,3-c]pyridine-5,4′-[1,3]oxazol]-2′-amine] | 801 | 70.8 | 
5 | COc1cc(F)c2c(c1)[C@]1(COC(N)=N1)c1cc(-c3cncc(C#CC(C)(C)OC)c3)ccc1O2 [Example 823, (4S)-4′-fluoro-2′-methoxy-7′-(5-(3-methoxy-3-methyl-1-butyn-1-yl)-3-pyridinyl)spiro[1,3-oxazole-4,9′-xanthen]-2-amine] |  | 101 | 4300
6 | COc1cncc(-c2ccc3c(c2)[C@@]2(COC(N)=N2)c2cc(-c4ncccn4)ncc2O3)c1 [Example 687, (5S)-7-(5-methoxy-3-pyridinyl)-3-(2-pyrimidinyl)spiro[chromeno[2,3-c]pyridine-5,4′-[1,3]oxazol]-2′-amine] | 853 | 80.4 | 
7 | NC1=N[C@]2(CO1)c1cc(-c3cccnc3F)c(F)cc1Oc1c(F)cc(C3=CCOCC3)cc12 [Example 868, (4R)-7′-(3,6-dihydro-2H-pyran-4-yl)-3′,5′-difluoro-2′-(2-fluoro-3-pyridinyl)spiro[1,3-oxazole-4,9′-xanthen]-2-amine] | 1130 | 52.1 | 
8 | NC1=N[C@]2(CS1)c1cc(-c3cccnc3F)c(F)cc1Oc1c(F)cc(N3CCOCC3)cc12 [Example 880, (4R)-3′,5′-difluoro-2′-(2-fluoro-3-pyridinyl)-7′-(4-morpholinyl)spiro[1,3-thiazole-4,9′-xanthen]-2-amine] | ≥ 10000 | 1230 | 
9 | NC1=N[C@@]2(CS1)c1cc(-c3cccnc3F)ccc1Oc1c2cc(-c2cccnc2F)nc1F [Example 1025, (5S)-1-fluoro-3,7-bis(2-fluoro-3-pyridinyl)spiro[chromeno[2,3-c]pyridine-5,4′-[1,3]thiazol]-2′-amine] |  | 1 | 141
10 | NC1=N[C@@]2(CO1)c1cc(-c3cccnc3F)ccc1Oc1cnc(-c3ccnc(O)c3)cc12 [Example 842, 4-((5S)-2′-amino-7-(2-fluoro-3-pyridinyl)spiro[chromeno[2,3-c]pyridine-5,4′-[1,3]oxazol]-3-yl)-2-pyridinol] |  | 25.9 | 2560
11 | CC(C)(C)/C=C/c1ccc2c(c1)[C@]1(COC(N)=N1)c1cc(Cl)ncc1O2 [Example 383, (5R)-3-chloro-7-((1E)-3,3-dimethyl-1-buten-1-yl)spiro[chromeno[2,3-c]pyridine-5,4′-[1,3]oxazol]-2′-amine] | 2560 | 622 | 
12 | NC1=N[C@@]2(CO1)c1cc(-c3cccnc3F)ccc1Oc1c(F)cc(C3=CC(=O)OC3)cc12 [Example 801, 4-((4S)-2-amino-4′-fluoro-7′-(2-fluoro-3-pyridinyl)spiro[1,3-oxazole-4,9′-xanthen]-2′-yl)-2(5H)-furanone] |  | 2.2 | 170
13 | C[C@@H]1CN(c2cc(F)c3c(c2)[C@]2(COC(N)=N2)c2cc(-c4cncc(C#N)c4)ccc2O3)C[C@H](C)O1 [Example 560, 5-((4S)-2-amino-7′-((2R,6S)-2,6-dimethyl-4-morpholinyl)-5′-fluorospiro[1,3-oxazole-4,9′-xanthen]-2′-yl)-3-pyridinecarbonitrile] | 14.2 | 2.8 | 
14 | C=CCN(C)c1cc(F)c2c(c1)[C@]1(COC(N)=N1)c1cc(-c3cccnc3F)ccc1O2 [Example 853, (4S)-4′-fluoro-7′-(2-fluoro-3-pyridinyl)-N~2~′-methyl-N~2~′-2-propen-1-ylspiro[1,3-oxazole-4,9′-xanthene]-2,2′-diamine] | 85 | 4 | 
15 | NC1=NC2(CO1)c1cc(-c3cccnc3F)ccc1Oc1nc(F)c(-c3cccnc3F)cc12 (stereo not shown) [Example 147, 2-fluoro-3,7-bis(2-fluoro-3-pyridinyl)spiro[chromeno[2,3-b]pyridine-5,4′-[1,3]oxazol]-2′-amine] |  | 22.3 | 124
16 | NC1=N[C@@]2(CO1)c1cc(-c3cccnc3F)ccc1Oc1cnc(N3C[C@@H]4C[C@H]3CO4)cc12 [Example 891, (5S)-7-(2-fluoro-3-pyridinyl)-3-((1S,4S)-2-oxa-5-azabicyclo[2.2.1]hept-5-yl)spiro[chromeno[2,3-c]pyridine-5,4′-[1,3]oxazol]-2′-amine] | 61 | 1.9 | 
17 | NC1=N[C@@]2(CS1)c1cc(-c3cncc(F)c3)ccc1Oc1ncc(C3=CCCOC3)cc12 [Example 770, (5S)-3-(5,6-dihydro-2H-pyran-3-yl)-7-(5-fluoro-3-pyridinyl)spiro[chromeno[2,3-b]pyridine-5,4′-[1,3]thiazol]-2′-amine] |  | 0.6 | 10
18 | NC1=N[C@@]2(CO1)c1cc(O)ccc1Oc1c(F)cc(-n3cccn3)cc12 [Example 665, (4S)-2-amino-5′-fluoro-7′-(1H-pyrazol-1-yl)spiro[1,3-oxazole-4,9′-xanthen]-2′-ol] | 4580 | 1100 | 
19 | NC1=N[C@@]2(CO1)c1cc(-c3cccnc3F)ccc1Oc1nc(F)c(I)cc12 [Example 898, (5S)-2-fluoro-7-(2-fluoro-3-pyridinyl)-3-iodospiro[chromeno[2,3-b]pyridine-5,4′-[1,3]oxazol]-2′-amine] | ≥ 10000 | 10600 | 
20 | CC(C)(C)COc1cc(F)c2c(c1)[C@@]1(COC(N)=N1)c1cc(-c3cncnc3)c(F)cc1O2 [Example 525, (4R)-7′-(2,2-dimethylpropoxy)-3′,5′-difluoro-2′-(5-pyrimidinyl)spiro[1,3-oxazole-4,9′-xanthen]-2-amine] | 2390 | 159 | 
21 | NC1=N[C@@]2(CO1)c1cc(OCc3ccc(Br)cc3)ccc1Oc1ncc(-c3cccnc3)cc12 [Example 980, (5S)-7-((4-bromobenzyl)oxy)-3-(3-pyridinyl)spiro[chromeno[2,3-b]pyridine-5,4′-[1,3]oxazol]-2′-amine] |  | 45.6 | 336
22 | COc1ccc(-c2cc3c(cn2)Oc2ccc(-c4cccc(Cl)c4)cc2[C@@]32COC(N)=N2)cc1F [Example 535, (5S)-7-(3-chlorophenyl)-3-(3-fluoro-4-methoxyphenyl)spiro[chromeno[2,3-c]pyridine-5,4′-[1,3]oxazol]-2′-amine] | 106 | 0.7 | 
23 | NC1=N[C@@]2(CO1)c1cc(-c3cc(Cl)ccc3Cl)ccc1Oc1ncc(C3=CCOCC3)cc12 [Example 501, (5S)-7-(2,5-dichlorophenyl)-3-(3,6-dihydro-2H-pyran-4-yl)spiro[chromeno[2,3-b]pyridine-5,4′-[1,3]oxazol]-2′-amine] | 27 | 2.2 | 
24 | NC1=N[C@]2(CO1)c1cc(-c3ccnc(F)c3)ccc1Oc1cnc(-c3cncnc3)cc12 [Example 393, (5R)-7-(2-fluoro-4-pyridinyl)-3-(5-pyrimidinyl)spiro[chromeno[2,3-c]pyridine-5,4′-[1,3]oxazol]-2′-amine] | 224 | 63.3 | 
25 | Cc1cccc(Oc2ccc3c(c2)[C@@]2(COC(N)=N2)c2cc(N4CCOCC4)cc(F)c2O3)n1 [Example 1057, (4S)-4′-fluoro-7′-((6-methyl-2-pyridinyl)oxy)-2′-(4-morpholinyl)spiro[1,3-oxazole-4,9′-xanthen]-2-amine] |  | 73.2 | 687
26 | CC(C)(C)C#Cc1cc2c(cn1)Oc1cc(F)c(-c3cncnc3)cc1[C@@]21COC(N)=N1 [Example 305, (5S)-3-(3,3-dimethyl-1-butyn-1-yl)-8-fluoro-7-(5-pyrimidinyl)spiro[chromeno[2,3-c]pyridine-5,4′-[1,3]oxazol]-2′-amine] |  | 9.9 | 95.8
27 | COc1ncc(-c2ccc3c(c2)[C@@]2(COC(N)=N2)c2cc(N4CCC(F)(F)CC4)ncc2O3)cn1 [Example 419, (5S)-3-(4,4-difluoro-1-piperidinyl)-7-(2-methoxy-5-pyrimidinyl)spiro[chromeno[2,3-c]pyridine-5,4′-[1,3]oxazol]-2′-amine] | 602 | 172 | 
28 | COc1ncc(Cl)cc1-c1ccc2c(c1)[C@@]1(COC(N)=N1)c1cc(C3=CCOCC3)ncc1O2 [Example 235, (5S)-7-(5-chloro-2-methoxy-3-pyridinyl)-3-(3,6-dihydro-2H-pyran-4-yl)spiro[chromeno[2,3-c]pyridine-5,4′-[1,3]oxazol]-2′-amine] |  | 1.2 | 14.7
29 | COc1cc(F)c2c(c1)[C@]1(COC(N)=N1)c1cc(-c3cncc(CC#N)c3)ccc1O2 [Example 1074, (5-((4S)-2-amino-5′-fluoro-7′-methoxyspiro[1,3-oxazole-4,9′-xanthen]-2′-yl)-3-pyridinyl)acetonitrile] |  | 131 | 324
